Data on 15 molecules can be found in PubChem BioAssay AID1944 (The Scripps Research Institute Molecular Screening Center, 2009).

Structures are written as SMILES. The source made the active and inactive calls. How the calls were made is not given here.

The target of this assay is Replicase polyprotein 1ab (Severe acute respiratory syndrome coronavirus) (UniProt P0C6X7). Kind of assay: papain-like protease inhibition, dose response, biochemical, luminescence, counter-screen for SARS-CoV 3CLpro inhibitor project (AID 1944). The note with it: SARS-CoV PLpro enzymatic assay. Background: A counterscreen serves to expose hits that act by an unwanted route or on another target.
In the case of `Cc1ccc2[nH]c3c(c2c1)CN(C(=O)CN1c2ccc(F)cc2CCC1C)CC3` (stereo not given), the IC50 is > 59.6 µM (inactive).
To `Cc1cc(C)c(C)c(S(=O)(=O)N2CCN(C(=O)c3cc(=O)[nH]c4ccccc34)CC2)c1C` belongs > 59.6 µM (inactive).
Regarding `CCC(C)(C)NC(=O)C(c1cccn1C)N(C(=O)Cn1nnc2ccccc21)c1ccc(NC(C)=O)cc1` (stereo not given), the IC50 was > 59.6 µM (inactive).
Under `Cc1cccc2c1N(CCOc1ccccc1)C(=O)C2=O` stands > 59.6 µM (inactive).
Turning to `Cn1cnc2cc(NC(=O)c3ccc(Cl)cc3)ccc21`, the half-inhibitory concentration (IC50) was 3.28 µM.
For `O=C(O)COc1ccc(Br)cc1C(c1c(C(=O)O)[nH]c2ccccc12)c1c(C(=O)O)[nH]c2ccccc12`, the IC50 entry is “inactive”.
Regarding `NC(=O)CCn1c(C(=O)c2cccc([N+](=O)[O-])c2)c2ccccc2[n+]1[O-]`, the IC50 was > 59.6 µM (inactive).
To `CCC(C)(C)NC(=O)C(c1ccc(O)cc1)N(C(=O)Cn1nnc2ccccc21)c1ccc(NC(C)=O)cc1` (stereo not given) belongs > 59.6 µM (inactive); to `Cc1ccc(C(=O)n2cnc3ccccc32)cc1C`, 9.11 µM.
Consider `N#CCC(=O)N/N=C/c1c(-c2ccccc2)n(-c2ccccc2)c2ccccc12`, for which the IC50 is > 59.6 µM (inactive).
Under `O=C(Oc1ccc(Cl)cc1N1C(=O)CCC1=O)c1ccco1` stands > 59.6 µM (inactive); under `COc1ccc(C(=O)Oc2cccnc2)cc1`, > 59.6 µM (inactive); under `CCn1nc(-c2ccccc2)nc2c(=O)n(C)c(=O)nc1-2`, 0.165 µM.
As for `CC(=O)c1cc(-c2ccccc2)[nH]c1N1CCCC1`, the IC50 entry was “inactive”.
With `Cc1cc(=O)oc2cc(OC(=O)c3ccco3)ccc12`, the IC50 is > 59.6 µM (inactive).

By IC50 is commonly meant the midpoint of a concentration-inhibition curve.
